# According to patent publication US9987247B2, “Drugs for treating diseases of cervical and/or lumbar vertebrae” (priority 2013, dated 2018):
# Columns and labels:
# [1] = test system: lumbar disc herniation; experiment: Treatment of patients with lumbar disc herniation with oral benzbromarone (case reports); type: in vivo, human
# [2] = test system: cervical disc herniation / cervical disease; experiment: Treatment of patients with cervical disc herniation / cervical disease with oral benzbromarone (case reports); type: in vivo, human
# From the text: The clinical effect criteria of the drug of the present application for treating cervical spondylosis can also be evaluated 2 weeks after treatment.
# [3] = Patient A, 100 mg first day then 50 mg once a day, after five days
# [4] = Patient A, 100 mg first day then 50 mg once a day, after two days
# [5] = Patient B, 50 mg once a day, after seven days
# [6] = Patient C, 12.5 mg once a day, after continuous administration for six days
# [7] = Patient H, 100 mg once a day plus sodium bicarbonate, after six days
# [8] = Patient L, 100 mg once a day plus sodium bicarbonate, after seven days
smiles,measurement,setting,value
CCc1oc2ccccc2c1C(=O)c1cc(Br)c(O)c(Br)c1 [benzbromarone],painful symptoms,"[1]; Patient A, about 75 kg, once a day, 100 mg first day then 50 mg, after one day",lessened
same,pain,[1]; [3],basically disappeared
same,walking,[1]; [3],could walk properly
same,ability to walk,[1]; [4],able to walk
same,painful symptoms,[1]; [4],alleviated obviously
same,recurrence of symptoms,"[1]; Patient A, within the next six months",haven't occurred
same,painful symptoms,"[1]; Patient B, about 60 kg, 50 mg once a day, waist massage first two days, after two days",alleviated obviously
same,ability to walk and work,[1]; [5],able to walk and work
same,pain during severe coughing,[1]; [5],no perceptible pain
same,waist pain,[1]; [5],basically disappeared
same,recurrence,"[1]; Patient B, within the next three months",no recurrence
same,pain,"[1]; Patient C, 12.5 mg once a day, waist massage first two days, six days later",significantly lessened
same,symptoms of pain,[1]; [6],disappeared
same,walking and ability to work,[1]; [6],walked properly and was able to work
same,Straight leg raising test,"[1]; Patient C, 12.5 mg once a day, after continuous administration for six days, positive before treatment",negative
same,recurrence,"[1]; Patient C, within the next two months",no recurrence
same,pain,"[1]; Patient D, L4/5 protrusion, 50 mg once a day, no other treatment, three days later",significantly lessened
same,"walking, ability to work, pain","[1]; Patient D, 50 mg once a day, after six days",walked properly and was able to work without pain
same,Straight leg raising test,"[1]; Patient D, 50 mg once a day, after six days, positive before treatment",negative
same,recurrence,"[1]; Patient D, within the next three months",no recurrence
same,pain,"[1]; Patient F, about 25 mg once a day, waist massage first three days, three days later",significantly lessened
same,walking,"[1]; Patient F, about 25 mg once a day, after six days",walked properly
same,ability to walk,"[1]; Patient F, about 25 mg once a day, three days later",able to walk
same,recurrence,"[1]; Patient F, within the next two months",no recurrence
same,pain,"[1]; Patient H, about 62 kg, L3/4 protrusion, 100 mg once a day plus sodium bicarbonate tablets 0.5 g three times a day, two days later",significantly reduced
same,pain when coughing,[1]; [7],no pain was felt
same,waist pain,[1]; [7],basically disappeared
same,walking and ability to work,[1]; [7],"could walk normally, and was able to work"
same,Straight leg raising test,"[1]; Patient H, 100 mg once a day plus sodium bicarbonate, after six days, positive before treatment",negative
same,recurrence,"[1]; Patient H, within the next three months",No recurrence
same,pain,[1]; [8],basically disappeared
same,walking and work ability,[1]; [8],"normal walking, work ability recovery"
same,Bragard test,"[1]; Patient L, 100 mg once a day plus sodium bicarbonate, after seven days, positive before treatment",negative
same,relapse,"[1]; Patient L, during the following two months",no relapse
same,"symptoms in pain, upper limbs numbness and dizziness","[2]; Patient E, cervical intervertebral disc herniation, about 50 mg once a day, no other treatment, six days later",relieved
same,pain and dizziness symptoms,"[2]; Patient G, cervical disease, about 25 mg once a day, neck massage first three days, eight days later",disappeared
same,Fenz signs,"[2]; Patient G, about 25 mg once a day, eight days later, positive before treatment",negative
same,dizziness symptoms,"[2]; Patient I, about 55 kg, cervical disc herniation, capsules 50 mg twice a day plus sodium bicarbonate tablets 0.5 g three times a day, after three days",reduced significantly
same,pain and dizziness symptoms,"[2]; Patient I, capsules 50 mg twice a day plus sodium bicarbonate, after eight days",disappeared
same,flexion neck rotation test,"[2]; Patient I, capsules 50 mg twice a day plus sodium bicarbonate, after eight days, positive before treatment",negative
same,recurrence,"[2]; Patient I, within the next one months",no recurrence
